Laboratory results reported in ChEMBL document CHEMBL1156251, “Structure--activity relationships of polymyxin antibiotics” (J Med Chem, 2010).
Converted amounts (≈) assume the structure as drawn.

How the values were obtained:
Escherichia coli [1] = assay: Antimicrobial activity against Escherichia coli K-12; type: functional
Escherichia coli [2] = assay: Antimicrobial activity against Escherichia coli at 10 ug/mL; type: functional
Lipopolysaccharide (LPS) = assay: Displacement of dansyl-PMB from LPS by isothermal titration calorimetry; conditions: read-out: IC50
Escherichia coli [3] = assay: Antimicrobial activity against Escherichia coli assessed as relative sensitizing activity; type: functional

| SMILES | MIC (Escherichia coli [1]) [µg/mL] | IC50 (Lipopolysaccharide (LPS)) [µM] | GI (Escherichia coli [2]) [square millimeter] | Activity (Escherichia coli [3]) [%] |
| --- | --- | --- | --- | --- |
| CCCCCCCCCC(=O)N[C@H](C(=O)N[C@@H](CCN)C(=O)N[C@H]1CCNC(=O)[C@H]([C@@H](C)O)NC(=O)[C@H](CCN)NC(=O)[C@H](CCN)NC(=O)[C@H](CC(C)C)NC(=O)[C@@H](CC(C)C)NC(=O)[C@H](CCN)NC1=O)[C@@H](C)O | 3 (≈ 2.77 µM) | – | – | – |
| CCC(C)CCCCCCC(=O)N[C@H](C(=O)N[C@@H](CCN)C(=O)N[C@H]1CCNC(=O)[C@H]([C@@H](C)O)NC(=O)[C@H](CCN)NC(=O)[C@H](CCN)NC(=O)[C@H](CC(C)C)NC(=O)[C@@H](CC(C)C)NC(=O)[C@H](CCN)NC1=O)[C@@H](C)O (some centres not stated) | 25 (≈ 22.8 µM) | – | – | – |
| CCCCCCCCCC(=O)N[C@H](C(=O)N[C@H](CO)C(=O)N[C@H]1CCNC(=O)[C@H]([C@@H](C)O)NC(=O)[C@H](CCN)NC(=O)[C@H](CCN)NC(=O)[C@H](CC(C)C)NC(=O)[C@@H](Cc2ccccc2)NC(=O)[C@H](CCN)NC1=O)[C@@H](C)O | – | – | 130 | – |
| CCCCCCCC(=O)N[C@H](C(=O)N[C@H](CO)C(=O)N[C@H]1CCNC(=O)[C@H]([C@@H](C)O)NC(=O)[C@H](CCN)NC(=O)[C@H](CCN)NC(=O)[C@H]([C@H](C)O)NC(=O)[C@@H](Cc2ccccc2)NC(=O)[C@H](CCN)NC1=O)[C@@H](C)O | – | – | 172 | – |
| CCCCCCC(=O)N[C@H](C(=O)N[C@H](CO)C(=O)N[C@H]1CCNC(=O)[C@H]([C@@H](C)O)NC(=O)[C@H](CCN)NC(=O)[C@H](CCN)NC(=O)[C@H](CC(C)C)NC(=O)[C@@H](Cc2ccccc2)NC(=O)[C@H](CCN)NC1=O)[C@@H](C)O | – | – | 80 | – |
| CCCCCCC(=O)N[C@H](C(=O)N[C@H](CO)C(=O)N[C@H]1CCNC(=O)[C@H]([C@@H](C)O)NC(=O)[C@H](CCN)NC(=O)[C@H](CCN)NC(=O)[C@H]([C@H](C)O)NC(=O)[C@@H](Cc2ccccc2)NC(=O)[C@H](CCN)NC1=O)[C@@H](C)O | – | – | 200 | – |
| CC(C)C[C@@H]1NC(=O)[C@@H](Cc2ccccc2)NC(=O)[C@H](CCCCN)NC(=O)CN(C(=O)[C@H](CCCCN)NC(=O)[C@@H](N)[C@@H](C)O)CCCCNC(=O)[C@@H]([C@H](C)O)NC(=O)[C@H](CCCCN)NC(=O)[C@H](CCCCN)NC1=O | – | 35 | – | 4 |
| CC(C)C[C@@H]1NC(=O)[C@@H](Cc2ccccc2)NC(=O)[C@H](CCCN)NC(=O)CN(C(=O)[C@H](CCCN)NC(=O)[C@@H](N)[C@@H](C)O)CCCNC(=O)[C@@H]([C@H](C)O)NC(=O)[C@H](CCCN)NC(=O)[C@H](CCCN)NC1=O | – | 25 | – | 2 |

More lines, main results first:

| MIC (Escherichia coli [1]) [µg/mL] | IC50 (Lipopolysaccharide (LPS)) [µM] | SMILES | GI (Escherichia coli [2]) [square millimeter] | Activity (Escherichia coli [3]) [%] |
| --- | --- | --- | --- | --- |
| – | 30 | CC(C)C[C@@H]1NC(=O)[C@@H](Cc2ccccc2)NC(=O)[C@H](CCCCN)NC(=O)[C@@H](NC(=O)[C@H](CCCCN)NC(=O)[C@@H](N)[C@@H](C)O)CCNC(=O)[C@H]([C@@H](C)O)NC(=O)[C@H](CCCCN)NC(=O)[C@H](CCCCN)NC1=O | – | 5 |
| – | 15 | CC(C)C[C@@H]1NC(=O)[C@@H](Cc2ccccc2)NC(=O)[C@H](CCCCN)NC(=O)[C@@H](NC(=O)[C@H](CCCCN)NC(=O)[C@@H](N)[C@@H](C)O)CCNC(=O)[C@H]([C@@H](C)O)NC(=O)[C@H](CCN)NC(=O)[C@H](CCN)NC1=O | – | 4 |
| – | 30 | CC(C)C[C@@H]1NC(=O)[C@@H](Cc2ccccc2)NC(=O)[C@H](CN)NC(=O)[C@@H](NC(=O)[C@H](CN)NC(=O)[C@@H](N)[C@@H](C)O)CNC(=O)[C@H]([C@@H](C)O)NC(=O)[C@H](CN)NC(=O)[C@H](CN)NC1=O | – | 11 |
| – | 14 | CC(C)C[C@@H]1NC(=O)[C@@H](Cc2ccccc2)NC(=O)[C@H](CCCCN)NC(=O)[C@@H](NC(=O)[C@H](CCCCN)NC(=O)[C@@H](N)[C@@H](C)O)CCNC(=O)[C@@H]([C@H](C)O)NC(=O)[C@H](CCN)NC(=O)[C@H](CCN)NC1=O | – | 9 |
| – | 12 | CC(C)C[C@@H]1NC(=O)[C@@H](Cc2ccccc2)NC(=O)[C@H](CCN)NC(=O)[C@@H](NC(=O)[C@H](CCN)NC(=O)[C@@H](N)[C@@H](C)O)CCNC(=O)[C@H]([C@@H](C)O)NC(=O)[C@H](CCCCN)NC(=O)[C@H](CCCCN)NC1=O | – | 40 |
| – | 3.8 | CC(C)C[C@@H]1NC(=O)[C@@H](Cc2ccccc2)NC(=O)[C@H](CC(=N)N)NC(=O)[C@@H](NC(=O)[C@H](CC(=N)N)NC(=O)[C@@H](N)[C@@H](C)O)CCNC(=O)[C@H]([C@@H](C)O)NC(=O)[C@H](CC(=N)N)NC(=O)[C@H](CC(=N)N)NC1=O | – | 25 |
